Laboratory results taken from patent US12091385B2, “Pyridinylcyanoguanidine derivative and use thereof” (Rushi Biotech (Hangzhou) Co., Ltd, priority 2021, dated 2024).

Experiments:
Type in all cases: cell-based
[1] = system: Human lung adenocarcinoma cell A549; experiment: CCK-8 cell proliferation assay, A549; details: A549 cells, 72 hrs with drug, CCK-8, OD 450 nm
Procedure: (§1) The effect of samples on the proliferation of human tumor cells in vitro was determined by CCK-8 cell proliferation assay.
(§2) The cells were assayed through a method including the following steps: • 1) The cells were digested, counted, and prepared into a cell suspension in a corresponding culture medium (Table 1) (5×10^4 cells/ml for CFPAC-1 and RPMI 8226, and 3.5×10^4 cells/ml for rest cells). The cell suspension was added to each well of a 96-well plate in 100 μl/well. • 2) Then the 96-well plate was incubated for 24 hrs in an incubator at 37° C. and 5% CO2. • 3) The drug was diluted with the culture medium to the required working concentration. 100 μl of the corresponding drug containing medium was added to each well.

[2] = system: Human hepatoma cell HepG2; experiment: CCK-8 cell proliferation assay, HepG2; details: HepG2 cells, 72 hrs with drug, CCK-8, OD 450 nm
Procedure: as §1, §2

[3] = system: Human esophageal cancer cell TE-1; experiment: CCK-8 cell proliferation assay, TE-1; details: TE-1 cells, 72 hrs with drug, CCK-8, OD 450 nm
Procedure: as §1, §2

[4] = system: Human gastric cancer cell MKN45; experiment: CCK-8 cell proliferation assay, MKN45; details: MKN-45 cells, 72 hrs with drug, CCK-8, OD 450 nm
Procedure: as §1, §2

[5] = system: Human colon cancer cell HCT-116; experiment: CCK-8 cell proliferation assay, HCT-116; details: HCT116 cells, 72 hrs with drug, CCK-8, OD 450 nm
Procedure: as §1, §2

[6] = system: Human multiple myeloma cell RPMI 8226; experiment: CCK-8 cell proliferation assay, RPMI 8226; details: RPMI8226 cells, 72 hrs with drug, CCK-8, OD 450 nm
Procedure: as §1, §2

[7] = system: Human pancreatic cancer cell CFPAC-1; experiment: CCK-8 cell proliferation assay, CFPAC-1; details: CFPAC-1 cells, 72 hrs with drug, CCK-8, OD 450 nm
Procedure: as §1, §2

IC50 [1] [nM]	IC50 [2] [nM]	IC50 [3] [nM]	IC50 [4] [nM]	IC50 [5] [nM]	IC50 [6] [nM]	IC50 [7] [nM]	SMILES
64	98	92	43	92	41	47	N#CN=C(NCCCCCCC1CCN(C(=O)c2cc3ccccc3o2)C1)Nc1ccncc1 (centres unmarked) [BSS-PC072, 2-cyano-1-(6-(1-(2-benzofurylformyl)pyrrolidine-3-yl)hexyl)-3-(4-pyridinyl)guanidine]
71	85	81	68	92	43	58	N#CN=C(NCCCCCN1CCN(C(=O)C2CCCS2)CC1)Nc1ccncc1 (centres unmarked) [BSS-PC009, 2-cyano-1-(5-(1-(2-tetrahydrothienylformyl)piperazine-4-yl)pentyl)-3-(4-pyridinyl)guanidine]
29	44	39	40	57	24	29	COc1cccc(OC)c1C(=O)N1CCC(CCCCCNC(=NC#N)Nc2cccnc2)C1 (centres unmarked) [BSS-PC052, 2-cyano-1-(5-(1-(2,6-dimethoxybenzoyl)pyrrolidine-3-yl)pentyl)-3-(3-pyridinyl)guanidine]
74	77	85	60	95	28	35	N#CN=C(NCCCCCN1CCN(C(=O)c2cccs2)CC1)Nc1cccnc1 [BSS-PC018, 2-cyano-1-(5-(1-(2-thienylformyl)piperazine-4-yl)pentyl)-3-(3-pyridinyl)guanidine]
50	51	55	39	66	31	35	N#CN=C(NCCCCCC1CCN(C(=O)c2ccccc2)C1)Nc1ccncc1 (centres unmarked) [BSS-PC028, 2-cyano-1-(5-((1-benzoyl)pyrrolidine-3-yl)pentyl)-3-(4-pyridinyl)guanidine]
57	122	103	65	87	33	45	N#CN=C(NCCCCCCC1CCN(C(=O)c2ccc[nH]2)C1)Nc1cccnc1 (centres unmarked) [BSS-PC061, 2-cyano-1-(6-(1-(2-pyrrolylformyl)pyrrolidine-3-yl)hexyl)-3-(3-pyridinyl)guanidine]
48	93	57	72	101	28	38	N#CN=C(NCCCCCN1CCN(C(=O)c2ccco2)CC1)Nc1ccnc(F)c1 [BSS-PC013]
43	92	99	47	86	35	46	N#CN=C(NCCCCCCC1CCN(C(=O)c2ccccc2)C1)Nc1cccnc1 (centres unmarked) [BSS-PC059, 2-cyano-1-(6-((1-benzoyl)pyrrolidine-3-yl)hexyl)-3-(3-pyridinyl)guanidine]
29	49	46	50	41	19	26	N#CN=C(NCCCCCN1CCN(C(=O)c2ccccc2)CC1)Nc1ccncc1 [BSS-PC003]
50	88	90	61	82	41	47	COc1cccc(OC)c1C(=O)N1CCC(CCCCCCNC(=NC#N)Nc2ccncc2)C1 (centres unmarked) [BSS-PC055, 2-cyano-1-(6-(1-(2,6-dimethoxybenzoyl)pyrrolidine-3-yl)hexyl)-3-(4-pyridinyl)guanidine]
28	90	72	36	58	25	39	N#CN=C(NCCCCCC1CCN(C(=O)C2CCCO2)C1)Nc1ccncc1 (centres unmarked) [BSS-PC036, 2-cyano-1-(5-(1-(2-tetrahydrofuranformyl)pyrrolidine-3-yl)pentyl)-3-(4-pyridinyl)guanidine]
